# Laboratory results published in ChEMBL document CHEMBL2390917, “Synthesis and biological evaluation of 2-(5-methyl-4-phenyl-2-oxopyrrolidin-1-yl)-acetamide stereoisomers as novel positive allosteric modulators of sigma-1 receptor” (Bioorg Med Chem, 2013).
# Active and inactive are the calls of the source. The calls are words filed in the database; no cut-off is given here.
# Key:
# [1] = target: Adrenergic receptor alpha-2 (Homo sapiens) (UniProt P08913+P18825+P18089); test: Binding affinity to human adrenergic alpha2 receptor at 10 uM by radioligand displacement assay relative to control
# Homo sapiens [2] = species: Homo sapiens; test: Binding affinity to GABA receptor (unknown origin) at 10 uM by radioligand displacement assay relative to control
# Mus musculus [3] = test: Toxicity in ICR mouse assessed as effect on locomotor activity measured moved distance per 4 mins at 100 mg/kg, ip after 30 mins by open field test (reference value: 1124 121 cm); assay type: organism-based; parameters: dose 100 mg/kg, route intraperitoneal; conditions: in vivo
# [4] = target: Delta-type opioid receptor (Homo sapiens) (UniProt P41143); test: Binding affinity to delta opioid receptor (unknown origin) at 10 uM by radioligand displacement assay relative to control
# Chain of Delta-type opioid receptor (Homo sapiens) (P41143 whole entry): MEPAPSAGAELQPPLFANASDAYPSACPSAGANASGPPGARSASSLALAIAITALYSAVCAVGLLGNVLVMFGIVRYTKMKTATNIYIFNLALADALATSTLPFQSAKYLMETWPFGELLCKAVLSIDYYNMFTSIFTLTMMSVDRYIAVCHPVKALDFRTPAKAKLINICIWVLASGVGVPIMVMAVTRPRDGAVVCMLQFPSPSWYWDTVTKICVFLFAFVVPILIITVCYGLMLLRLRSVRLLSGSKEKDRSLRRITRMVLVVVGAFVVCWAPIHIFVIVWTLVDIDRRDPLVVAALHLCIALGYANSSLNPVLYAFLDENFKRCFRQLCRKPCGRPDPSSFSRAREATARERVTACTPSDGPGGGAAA
# Mus musculus [5] = test: Toxicity in ICR mouse assessed as effect on locomotor activity measured moved distance per 4 mins at 10 mg/kg, ip after 240 mins by open field test (reference value: 398 70 cm); assay type: organism-based; parameters: dose 10 mg/kg, route intraperitoneal; conditions: in vivo
# [6] = target: Sigma non-opioid intracellular receptor 1 (Rattus norvegicus) (UniProt Q9R0C9); test: Positive allosteric modulation of Wistar rat sigma 1 receptor assessed as potentiation of PB-28 effect on electrically-stimulated vas deferens contraction at 10 uM preincubated for 10 mins followed by PB-28 addition
# Chain of Sigma non-opioid intracellular receptor 1 (Rattus norvegicus) (Q9R0C9 whole entry): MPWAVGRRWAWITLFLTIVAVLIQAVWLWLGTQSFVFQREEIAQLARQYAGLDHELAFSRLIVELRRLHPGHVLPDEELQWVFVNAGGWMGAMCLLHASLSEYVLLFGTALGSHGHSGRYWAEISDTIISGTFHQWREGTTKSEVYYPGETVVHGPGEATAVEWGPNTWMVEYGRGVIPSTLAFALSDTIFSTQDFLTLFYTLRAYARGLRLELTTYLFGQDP
# [7] = target: Endothelin-1 receptor (Homo sapiens) (UniProt P25101); test: Binding affinity to human ETA receptor at 10 uM by radioligand displacement assay relative to control
# [8] = target: T1, Sigma non-opioid intracellular receptor 1 (Homo sapiens, UniProt Q99720); test: Displacement of [3H]1,3-di(2-tolyl)guanidine from sigma 1 receptor in human Jurkat cells; assay type: cell-based
# T1 sequence (Q99720 whole entry): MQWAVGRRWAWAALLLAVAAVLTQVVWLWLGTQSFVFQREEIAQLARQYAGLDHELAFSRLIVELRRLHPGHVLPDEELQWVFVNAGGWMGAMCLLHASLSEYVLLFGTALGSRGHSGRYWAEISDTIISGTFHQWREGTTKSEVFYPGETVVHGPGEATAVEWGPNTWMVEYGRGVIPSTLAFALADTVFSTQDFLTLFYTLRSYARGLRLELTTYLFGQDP
# [9] = target: Sodium-dependent serotonin transporter (Homo sapiens) (UniProt P31645); test: Binding affinity to human serotonin 5-HT transporter at 10 uM by radioligand displacement assay relative to control
# Chain of Sodium-dependent serotonin transporter (Homo sapiens) (P31645 whole entry, looked up): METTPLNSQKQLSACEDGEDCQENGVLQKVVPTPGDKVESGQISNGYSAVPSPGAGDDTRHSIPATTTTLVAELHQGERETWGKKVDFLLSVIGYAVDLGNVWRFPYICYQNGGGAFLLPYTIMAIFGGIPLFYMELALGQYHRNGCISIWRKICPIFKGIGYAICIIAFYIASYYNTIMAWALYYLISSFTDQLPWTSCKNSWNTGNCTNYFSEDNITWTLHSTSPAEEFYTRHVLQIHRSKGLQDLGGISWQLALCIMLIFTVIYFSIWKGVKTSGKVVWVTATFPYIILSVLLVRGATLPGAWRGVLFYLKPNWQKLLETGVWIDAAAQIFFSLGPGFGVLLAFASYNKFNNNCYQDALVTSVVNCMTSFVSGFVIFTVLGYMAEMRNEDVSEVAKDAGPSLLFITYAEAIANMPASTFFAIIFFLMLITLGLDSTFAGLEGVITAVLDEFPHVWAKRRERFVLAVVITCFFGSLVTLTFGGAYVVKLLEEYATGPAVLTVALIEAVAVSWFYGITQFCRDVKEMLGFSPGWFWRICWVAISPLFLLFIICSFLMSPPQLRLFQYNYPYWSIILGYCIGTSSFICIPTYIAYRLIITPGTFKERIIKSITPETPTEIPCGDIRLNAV
# [10] = target: 5-hydroxytryptamine receptor 6 (Homo sapiens) (UniProt P50406); test: Binding affinity to human 5-HT6 receptor at 10 uM by radioligand displacement assay relative to control
# Chain of 5-hydroxytryptamine receptor 6 (Homo sapiens) (P50406 whole entry): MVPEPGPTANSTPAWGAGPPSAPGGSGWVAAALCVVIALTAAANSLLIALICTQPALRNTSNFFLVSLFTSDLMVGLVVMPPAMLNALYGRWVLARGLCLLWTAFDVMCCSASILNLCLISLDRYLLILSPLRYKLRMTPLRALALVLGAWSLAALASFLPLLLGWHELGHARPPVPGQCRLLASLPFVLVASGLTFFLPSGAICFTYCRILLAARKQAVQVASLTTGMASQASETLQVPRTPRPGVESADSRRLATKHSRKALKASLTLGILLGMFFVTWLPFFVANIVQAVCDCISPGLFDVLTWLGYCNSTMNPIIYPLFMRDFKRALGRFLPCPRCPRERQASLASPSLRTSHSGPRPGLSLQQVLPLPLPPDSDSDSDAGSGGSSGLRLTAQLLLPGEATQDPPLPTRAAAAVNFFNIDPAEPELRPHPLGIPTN
# Mus musculus [11] = test: Toxicity in ICR mouse assessed as effect on locomotor activity measured moved distance per 4 mins at 10 mg/kg, ip after 120 mins by open field test (reference value: 578 126 cm); assay type: organism-based; parameters: dose 10 mg/kg, route intraperitoneal; conditions: in vivo
# Mus musculus [12] = test: Toxicity in ICR mouse assessed as effect on locomotor activity measured moved distance per 4 mins at 10 mg/kg, ip after 180 mins by open field test (reference value: 436 125 cm); assay type: organism-based; parameters: dose 10 mg/kg, route intraperitoneal; conditions: in vivo
# Mus musculus [13] = test: Toxicity in ICR mouse assessed as effect on locomotor activity measured moved distance per 4 mins at 100 mg/kg, ip after 180 mins by open field test (reference value: 436 125 cm); assay type: organism-based; parameters: dose 100 mg/kg, route intraperitoneal; conditions: in vivo
# [14] = target: Vasopressin V1a receptor (Homo sapiens) (UniProt P37288); test: Binding affinity to human vasopressin V1a receptor at 10 uM by radioligand displacement assay relative to control
# Chain of Vasopressin V1a receptor (Homo sapiens) (P37288 whole entry, looked up): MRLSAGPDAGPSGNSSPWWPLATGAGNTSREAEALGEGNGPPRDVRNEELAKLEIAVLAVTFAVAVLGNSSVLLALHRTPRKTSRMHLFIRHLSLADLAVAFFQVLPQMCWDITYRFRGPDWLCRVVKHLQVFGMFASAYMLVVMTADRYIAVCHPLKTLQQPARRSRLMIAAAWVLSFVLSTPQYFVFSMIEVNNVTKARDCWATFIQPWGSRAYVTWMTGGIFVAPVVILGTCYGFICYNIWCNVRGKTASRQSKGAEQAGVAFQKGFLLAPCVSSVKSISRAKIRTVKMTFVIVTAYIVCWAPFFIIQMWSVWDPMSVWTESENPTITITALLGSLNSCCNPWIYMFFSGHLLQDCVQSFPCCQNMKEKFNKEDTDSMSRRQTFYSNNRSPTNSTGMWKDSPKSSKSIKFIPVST
# [15] = target: 5-hydroxytryptamine receptor 1A (Homo sapiens) (UniProt P08908); test: Binding affinity to human 5-HT1A receptor at 10 uM by radioligand displacement assay relative to control
# Mus musculus [16] = test: Toxicity in ICR mouse assessed as effect on locomotor activity measured moved distance per 4 mins at 1 mg/kg, ip after 60 mins by open field test (reference value: 623 136 cm); assay type: organism-based; parameters: dose 1 mg/kg, route intraperitoneal; conditions: in vivo
# [17] = target: D(1B) dopamine receptor (Homo sapiens) (UniProt P21918); test: Binding affinity to human dopamine D5 receptor at 10 uM by radioligand displacement assay relative to control
# Chain of D(1B) dopamine receptor (Homo sapiens) (P21918 whole entry): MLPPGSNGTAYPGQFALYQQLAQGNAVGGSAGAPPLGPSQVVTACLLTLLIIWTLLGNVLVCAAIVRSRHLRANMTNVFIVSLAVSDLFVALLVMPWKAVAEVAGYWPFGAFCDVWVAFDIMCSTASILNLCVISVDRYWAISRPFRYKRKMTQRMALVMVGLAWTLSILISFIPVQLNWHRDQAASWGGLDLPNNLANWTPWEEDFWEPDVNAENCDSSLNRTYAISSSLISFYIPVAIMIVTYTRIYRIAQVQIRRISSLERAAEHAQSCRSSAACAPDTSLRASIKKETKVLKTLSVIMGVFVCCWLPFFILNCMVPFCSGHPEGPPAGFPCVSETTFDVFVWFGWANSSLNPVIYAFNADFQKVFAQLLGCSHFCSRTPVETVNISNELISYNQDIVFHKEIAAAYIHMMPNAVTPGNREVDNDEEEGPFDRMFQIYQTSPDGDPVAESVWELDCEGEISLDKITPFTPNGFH
# Homo sapiens [18] = species: Homo sapiens; test: Binding affinity to P2Y receptor (unknown origin) at 10 uM by radioligand displacement assay relative to control
# [19] = target: 5-hydroxytryptamine receptor 3A (Homo sapiens) (UniProt P46098); test: Binding affinity to human 5-HT3 receptor at 10 uM by radioligand displacement assay relative to control
# [20] = target: T2, Adrenergic receptor alpha-1 (Homo sapiens) (UniProt P35348+P25100+P35368); test: Binding affinity to human adrenergic alpha1 receptor at 10 uM by radioligand displacement assay relative to control
# Mus musculus [21] = test: Cognitive enhancing effect in ip dosed ICR mouse assessed as increase in retention latency administered 60 mins prior to testing measured after 24 hrs by passive avoidance test; assay type: functional, organism-based
# [22] = target: Cholecystokinin receptor type A (Homo sapiens) (UniProt P32238); test: Binding affinity to human CCK1 receptor at 10 uM by radioligand displacement assay relative to control
# [23] = target: Muscarinic acetylcholine receptor M1 (Homo sapiens) (UniProt P11229); test: Binding affinity to human muscarinic M1 receptor at 10 uM by radioligand displacement assay relative to control
# Chain of Muscarinic acetylcholine receptor M1 (Homo sapiens) (P11229 whole entry): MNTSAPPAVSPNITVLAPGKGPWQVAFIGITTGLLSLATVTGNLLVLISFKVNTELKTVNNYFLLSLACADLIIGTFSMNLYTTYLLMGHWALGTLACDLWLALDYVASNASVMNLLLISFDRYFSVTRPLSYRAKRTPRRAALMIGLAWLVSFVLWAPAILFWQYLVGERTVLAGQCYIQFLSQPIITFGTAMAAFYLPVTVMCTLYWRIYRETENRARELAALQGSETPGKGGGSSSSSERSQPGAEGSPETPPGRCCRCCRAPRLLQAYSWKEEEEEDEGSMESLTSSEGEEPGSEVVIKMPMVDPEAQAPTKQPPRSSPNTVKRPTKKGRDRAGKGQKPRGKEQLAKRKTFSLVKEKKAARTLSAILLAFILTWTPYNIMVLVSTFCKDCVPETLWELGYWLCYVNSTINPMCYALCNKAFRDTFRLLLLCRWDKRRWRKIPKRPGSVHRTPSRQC
# Mus musculus [24] = test: Antiamnesic activity in ICR mouse scopolamine-induced memory impairment model assessed as increase in retention latency at 5 mg/kg, ip administered 60 mins prior to scopolamine challenge measured after 40 mins by passive avoidance test relative to scopolamine-treated control; assay type: functional; conditions: route intraperitoneal
# [25] = target: D(3) dopamine receptor (Homo sapiens) (UniProt P35462); test: Binding affinity to human dopamine D3 receptor at 10 uM by radioligand displacement assay relative to control
# Mus musculus [26] = test: Cognitive enhancing effect in ICR mouse assessed as increase in retention latency at 10 mg/kg, ip administered 60 mins prior to testing measured after 24 hrs by passive avoidance test relative to control; assay type: functional; conditions: route intraperitoneal
# [27] = target: C-C chemokine receptor type 1 (Homo sapiens) (UniProt P32246); test: Binding affinity to human CCR1 at 10 uM by radioligand displacement assay relative to control
# Chain of C-C chemokine receptor type 1 (Homo sapiens) (P32246 whole entry): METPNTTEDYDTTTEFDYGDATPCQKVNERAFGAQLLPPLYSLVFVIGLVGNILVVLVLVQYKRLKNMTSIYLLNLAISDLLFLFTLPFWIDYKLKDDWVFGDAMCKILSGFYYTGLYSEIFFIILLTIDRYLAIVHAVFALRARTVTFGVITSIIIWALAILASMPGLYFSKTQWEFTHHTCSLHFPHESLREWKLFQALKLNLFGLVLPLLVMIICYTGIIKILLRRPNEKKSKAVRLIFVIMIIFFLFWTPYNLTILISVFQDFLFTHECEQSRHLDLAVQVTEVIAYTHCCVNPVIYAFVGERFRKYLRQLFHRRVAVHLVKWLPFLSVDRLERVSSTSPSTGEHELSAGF
# Mus musculus [28] = test: Toxicity in ICR mouse assessed as effect on locomotor activity measured moved distance per 4 mins at 1 mg/kg, ip after 120 mins by open field test (reference value: 578 126 cm); assay type: organism-based; parameters: dose 1 mg/kg, route intraperitoneal; conditions: in vivo
# Homo sapiens [29] = species: Homo sapiens; test: Binding affinity to PCP receptor (unknown origin) at 10 uM by radioligand displacement assay relative to control
# [30] = target: 5-hydroxytryptamine receptor 1B (Homo sapiens) (UniProt P28222); test: Binding affinity to 5-HT1B receptor (unknown origin) at 10 uM by radioligand displacement assay relative to control
# Chain of 5-hydroxytryptamine receptor 1B (Homo sapiens) (P28222 whole entry): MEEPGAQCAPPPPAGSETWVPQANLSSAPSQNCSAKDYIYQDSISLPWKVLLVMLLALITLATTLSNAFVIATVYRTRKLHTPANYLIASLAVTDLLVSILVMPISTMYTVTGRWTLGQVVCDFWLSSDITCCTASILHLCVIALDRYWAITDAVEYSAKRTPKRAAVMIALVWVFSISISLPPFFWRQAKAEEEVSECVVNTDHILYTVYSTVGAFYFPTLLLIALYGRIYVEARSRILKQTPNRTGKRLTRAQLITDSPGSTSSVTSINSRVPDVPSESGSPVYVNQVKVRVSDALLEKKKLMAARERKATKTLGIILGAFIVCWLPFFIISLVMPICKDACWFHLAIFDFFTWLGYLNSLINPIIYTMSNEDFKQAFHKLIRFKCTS
# [31] = target: T2, Adrenergic receptor alpha-1 (Homo sapiens); test: Binding affinity to adrenergic alpha1 receptor (unknown origin) at 10 uM by radioligand displacement assay relative to control
# [32] = target: D(4) dopamine receptor (Homo sapiens) (UniProt P21917); test: Binding affinity to human dopamine D4.4 receptor at 10 uM by radioligand displacement assay relative to control
# Chain of D(4) dopamine receptor (Homo sapiens) (P21917 whole entry): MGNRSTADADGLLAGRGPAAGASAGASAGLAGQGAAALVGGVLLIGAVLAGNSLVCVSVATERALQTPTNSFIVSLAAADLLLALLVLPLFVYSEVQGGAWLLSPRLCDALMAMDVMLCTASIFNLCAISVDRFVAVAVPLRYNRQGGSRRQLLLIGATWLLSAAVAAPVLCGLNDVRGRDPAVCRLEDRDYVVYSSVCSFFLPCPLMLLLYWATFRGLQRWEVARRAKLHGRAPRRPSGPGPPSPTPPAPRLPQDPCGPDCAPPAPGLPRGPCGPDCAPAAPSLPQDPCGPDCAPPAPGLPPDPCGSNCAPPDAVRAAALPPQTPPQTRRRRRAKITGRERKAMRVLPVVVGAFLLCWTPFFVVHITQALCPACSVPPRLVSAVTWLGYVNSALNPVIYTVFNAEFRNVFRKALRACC
# [33] = target: 5-hydroxytryptamine receptor 7 (Homo sapiens) (UniProt P34969); test: Binding affinity to human 5-HT7 receptor at 10 uM by radioligand displacement assay relative to control
# Chain of 5-hydroxytryptamine receptor 7 (Homo sapiens) (P34969 whole entry): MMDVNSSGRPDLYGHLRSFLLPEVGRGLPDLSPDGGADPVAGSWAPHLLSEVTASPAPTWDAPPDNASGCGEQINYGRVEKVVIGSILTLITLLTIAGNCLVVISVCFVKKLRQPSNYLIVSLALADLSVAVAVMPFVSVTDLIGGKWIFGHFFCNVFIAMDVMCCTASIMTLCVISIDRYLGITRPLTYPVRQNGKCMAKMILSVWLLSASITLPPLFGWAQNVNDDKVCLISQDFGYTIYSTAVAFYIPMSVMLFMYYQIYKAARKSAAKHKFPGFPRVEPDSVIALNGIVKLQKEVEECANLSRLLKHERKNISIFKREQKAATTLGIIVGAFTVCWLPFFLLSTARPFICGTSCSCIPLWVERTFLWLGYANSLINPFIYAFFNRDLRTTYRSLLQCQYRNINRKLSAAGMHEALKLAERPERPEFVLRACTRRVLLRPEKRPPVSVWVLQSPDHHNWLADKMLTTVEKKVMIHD
# [34] = target: 5-hydroxytryptamine receptor 2A (Homo sapiens) (UniProt P28223); test: Binding affinity to human 5-HT2A receptor at 10 uM by radioligand displacement assay relative to control
# [35] = target: T1, Sigma non-opioid intracellular receptor 1; test: Modulation of sigma 1 receptor (unknown origin) by radioligand displacement assay relative to control
# Mus musculus [36] = test: Toxicity in ip dosed ICR mouse assessed as effect on motor coordination measured within 120 secs by rotarod test; assay type: organism-based; conditions: in vivo, 2 min
compound,measurement,setting,value
C[C@H]1[C@@H](c2ccccc2)CC(=O)N1CC(N)=O,inhibition,[1],-2%
same,inhibition,Homo sapiens [2],13%
same,Activity,Mus musculus [3],1076 cm
same,inhibition,[4],-4%
same,Activity,Mus musculus [5],359 cm
same,Activity,[6],inactive
same,inhibition,[7],-2%
same,IC50,[8],43 nM
same,inhibition,[9],5%
same,inhibition,[10],-10%
same,Activity,Mus musculus [11],472 cm
same,Activity,Mus musculus [12],406 cm
same,Activity,Mus musculus [13],450 cm
same,inhibition,[14],2%
same,inhibition,[15],-4%
same,Activity,Mus musculus [16],871 cm
same,inhibition,[17],-3%
same,inhibition,Homo sapiens [18],-4%
same,inhibition,[19],-1%
same,inhibition,[20],-5%
same,Activity,Mus musculus [21],Dose-dependent effect
same,inhibition,[22],9%
same,inhibition,[23],-4%
same,Activity,Mus musculus [24],237%
same,inhibition,[25],7%
same,Activity,Mus musculus [26],211%
same,inhibition,[27],-5%
same,Activity,Mus musculus [28],688 cm
same,inhibition,Homo sapiens [29],6%
same,inhibition,[30],0%
same,inhibition,[31],-5%
same,inhibition,[32],-3%
same,inhibition,[33],-4%
same,inhibition,[34],5%
same,Activity,[35],> 20%
same,ED50,Mus musculus [36],453 mg/kg
